One test addresses T1, CDK8/CycC (Homo sapiens, UniProt P49336).
T1 construct: purchased Carna Biosciences
Description: CDK8 inhibitory activity (Kinase Tracer-236 / Eu-anti-GST fluorescence assay). The class given is binding. Details: Percent inhibition of CDK8 activity (%): concentration or dose not given beside the values. To be noted: test compound concentration given as '1 1.1.1\4' [sic]. In outline: (§1)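 Tracer-displacement TR-FRET binding assay: compound with kinase, Eu-cryptate anti-GST antibody and 60 nM Kinase Tracer-236 (pre-dilution level), 1 h at room temperature; ex 320 nm, em 615/665 nm. Percent inhibition is relative to no-compound control and a 10 μM control-compound blank.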

Test [1] concerns human multiple myeloma RPMI8226 cells. Briefly: Inhibitory activity against human multiple myeloma RPMI8226 cell growth (CellTiter-Glo). Type of test: cell-based. To be noted: 1 μM test compound, cultured for 8 days; for inhibition at 1 µM: Homo sapiens, RPMI-8226, 192 h, read-out: Percent inhibition of RPMI8226 cell growth (%); for Percent inhibition of RPMI8226 cell growth (%): 1 µM. In outline:
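RPMI8226 cells (300/well) cultured 1 day at 37 °C, 5% CO2, then given compound at 1 μM for 8 days. ATP luminescence (CellTiter-Glo) read; percent inhibition relative to 0.1% DMSO wells.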
For orientation: Cellular ATP, detected with luciferase, serves as a proxy for viable cell number.

Test [2] deals with SW480 human colorectal cancer cells. Briefly: Antitumor efficacy in mice bearing SW480 human colorectal cancer cells. Type of test: in vivo, BALB/c female nude mice. To be noted: oral, 14 days. How it is done:
The compound of the present invention was evaluated for its antitumor efficacy in mice bearing cancer derived from SW480 human colorectal cancer cells by the following method.
SW480 human colorectal cancer cells were transplanted into 6- to 7-week-old BALB/c female nude mice (CLEA Japan) by subcutaneous injection of 2.0×10^6 cells per mouse. At 7 to 14 days after the transplantation, the size of the engrafted tumor was measured, and the tumor volume was calculated according to the following formula. Tumor volume=major axis×minor axis×minor axis×(½)
Test subjects having an engrafted tumor with a tumor volume of approximately 100 mm^3 were selected and used in the experiment (6 subjects per group). A suspension of each test compound in a 0.5% methylcellulose solution (Wako Pure Chemical Industries) was orally administered to the mice for 14 days at the dose (mg/kg, indicating the amount per dose) and the number of doses shown in Table 4. On the day before the start of the administration and the day before the completion of the administration, the tumor size was measured, and the tumor volume was calculated.
Percent tumor growth (T/C (%)) of the test compound administration group relative to the control administration group was calculated according to the following formula. T/C (%)=(tumor volume of the test compound administration group after the completion of the administration−tumor volume of the test compound administration group at the day before the start of the administration)/(tumor volume of the control administration group after the completion of the administration−tumor volume of the control administration group at the day before the start of the administration))×100

Another test concerns the target T2, CDC2L6/CycC (CDK19) (Homo sapiens, UniProt Q9BWU1).
T2 construct: purchased Carna Biosciences Inc
Briefly: CDK19 inhibitory activity (Kinase Tracer-236 / Eu-anti-GST fluorescence assay). The class given is binding. Details: Percent inhibition of CDK19 activity (%): concentration or dose not given beside the values. To be noted: test compound concentration given as '1 1.1.1\4' [sic]. An outline of the steps: as §1

T2 sequence (Q9BWU1 whole entry): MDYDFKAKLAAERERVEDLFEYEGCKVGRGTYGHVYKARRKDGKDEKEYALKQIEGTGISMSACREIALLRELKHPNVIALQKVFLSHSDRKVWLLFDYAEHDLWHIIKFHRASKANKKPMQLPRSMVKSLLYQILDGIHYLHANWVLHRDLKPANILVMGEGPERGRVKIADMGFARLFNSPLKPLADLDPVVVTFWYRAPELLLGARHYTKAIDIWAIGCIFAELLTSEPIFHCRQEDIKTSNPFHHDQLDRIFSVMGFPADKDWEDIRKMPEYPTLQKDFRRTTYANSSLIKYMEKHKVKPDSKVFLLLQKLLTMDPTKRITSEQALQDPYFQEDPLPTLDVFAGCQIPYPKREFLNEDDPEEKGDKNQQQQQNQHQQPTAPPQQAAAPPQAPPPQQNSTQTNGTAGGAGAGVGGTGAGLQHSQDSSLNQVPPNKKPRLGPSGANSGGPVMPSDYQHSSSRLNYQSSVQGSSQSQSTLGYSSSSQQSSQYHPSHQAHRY
T2 sequence (P24863 whole entry partner): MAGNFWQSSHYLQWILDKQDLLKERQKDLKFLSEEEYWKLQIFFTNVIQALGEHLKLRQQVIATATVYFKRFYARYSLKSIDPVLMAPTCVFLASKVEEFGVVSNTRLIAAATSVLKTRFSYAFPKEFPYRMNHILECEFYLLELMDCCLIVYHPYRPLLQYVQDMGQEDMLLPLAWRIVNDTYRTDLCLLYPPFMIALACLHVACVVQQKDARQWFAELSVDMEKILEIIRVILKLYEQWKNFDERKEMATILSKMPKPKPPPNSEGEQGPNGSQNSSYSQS
T1 sequence (P49336 whole entry): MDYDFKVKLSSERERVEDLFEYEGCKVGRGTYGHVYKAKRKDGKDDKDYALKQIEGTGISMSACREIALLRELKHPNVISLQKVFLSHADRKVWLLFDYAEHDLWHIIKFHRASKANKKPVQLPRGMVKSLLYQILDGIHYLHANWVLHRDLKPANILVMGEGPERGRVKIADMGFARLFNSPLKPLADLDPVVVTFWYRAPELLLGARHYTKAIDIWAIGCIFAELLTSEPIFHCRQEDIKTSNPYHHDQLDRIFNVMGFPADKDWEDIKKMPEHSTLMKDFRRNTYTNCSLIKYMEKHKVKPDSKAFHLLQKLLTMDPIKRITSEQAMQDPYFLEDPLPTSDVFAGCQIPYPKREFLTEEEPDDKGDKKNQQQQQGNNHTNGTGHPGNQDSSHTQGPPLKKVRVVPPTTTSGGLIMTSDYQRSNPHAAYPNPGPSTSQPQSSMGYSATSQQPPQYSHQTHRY
T1 sequence (P24863 whole entry partner): as the sequence (P24863 whole entry partner) above

As for `Cc1c(Oc2sc(C(N)=O)c3c2-c2sncc2CC3)ccc[n+]1[O-]` [Example 9, 8-((2-Methyl-1-oxidopyridin-3-yl)oxy)-4,5-dihydrothieno[3,4-g][1,2]benzothiazole-6-carboxamide], the “Percent inhibition of CDK8 activity (%)” value on CDK8/CycC stood at 97%. For the same compound, in test [1], the inhibition – broadly, the relative decrease from the control value, in per cent – at 1 µM amounted to 63%. Also, in test [2] (5 mg/kg, 1 dose per day), the “T/C (%)” value is 30%. In addition, at CDC2L6/CycC (CDK19), the “Percent inhibition of CDK19 activity (%)” value worked out at 98%.
`NC(=O)c1ccc(Oc2sc(C(N)=O)c3c2-c2sncc2CC3)cn1` [Example 13, 8-((6-Carbamoylpyridin-3-yl)oxy)-4,5-dihydrothieno[3,4-g][1,2]benzothiazole-6-carboxamide]: the “Percent inhibition of CDK8 activity (%)” value on CDK8/CycC is 97%. Moreover, the inhibition at 1 µM in test [1] was determined as 69%. Further, in test [2] (15 mg/kg, 1 dose per day), the “T/C (%)” value turned out to be 50%. The “Percent inhibition of CDK19 activity (%)” value on CDC2L6/CycC (CDK19) stood at 98%.
Consider `COCCNC(=O)c1ccc(Oc2sc(C(N)=O)c3c2-c2sncc2CC3)cn1` [Example 18, 8-((6-((2-Methoxyethyl)carbamoyl)pyridin-3-yl)oxy)-4,5-dihydrothieno[3,4-g][1,2]benzothiazole-6-carboxamide], for which, at CDK8/CycC, the “Percent inhibition of CDK8 activity (%)” value worked out at 103%. For the same compound, in test [1], the inhibition at 1 µM was 63%. In addition, the “T/C (%)” value in test [2] (10 mg/kg, 1 dose per day) turned out to be 30%. For the same compound, the “Percent inhibition of CDK19 activity (%)” value on CDC2L6/CycC (CDK19) was 100%.
For `Cc1nc(C(=O)NCC(C)(C)O)ccc1Oc1sc(C(N)=O)c2c1-c1sncc1CC2` [Example 24, 8-((6-((2-Hydroxy-2-methylpropyl)carbamoyl)-2-methylpyridin-3-yl)oxy)-4,5-dihydrothieno[3,4-g][1,2]benzothiazole-6-carboxamide], the “Percent inhibition of CDK8 activity (%)” value at CDK8/CycC was 102%. The inhibition at 1 µM in test [1] came to 64%. Also, the “T/C (%)” value in test [2] (10 mg/kg, 1 dose per day) was found to be 32%. Besides, the “Percent inhibition of CDK19 activity (%)” value on CDC2L6/CycC (CDK19) is recorded as 99%.
Regarding `Cc1nn(C)c(C)c1Oc1sc(C(N)=O)c2c1-c1sncc1CC2` [Example 32, 8-((1,3,5-Trimethyl-1H-pyrazol-4-yl)oxy)-4,5-dihydrothieno[3,4-g][1,2]benzothiazole-6-carboxamide], the “Percent inhibition of CDK8 activity (%)” value at CDK8/CycC stood at 107%. For the same compound, in test [1], the inhibition at 1 µM was 63%. For the same compound, the “T/C (%)” value in test [2] (15 mg/kg, 2 doses per day) was determined as 36%. Further, the “Percent inhibition of CDK19 activity (%)” value at CDC2L6/CycC (CDK19) worked out at 100%.
Consider `COCCNC(=O)c1ccc(Oc2sc(C(N)=O)c3c2-c2sncc2CC3)cn1` [Example 138, 8-((6-((2-Methoxyethyl)carbamoyl)pyridin-3-yl)oxy)-4,5-dihydrothieno[3,4-g][1,2]benzothiazole-6-carboxamide fumaric acid (1:1)], for which, at CDK8/CycC, the “Percent inhibition of CDK8 activity (%)” value was 103%. Moreover, the “Percent inhibition of RPMI8226 cell growth (%)” value in test [1] was 69%. In addition, at CDC2L6/CycC (CDK19), the “Percent inhibition of CDK19 activity (%)” value worked out at 100%.
The corresponding values for `COCCNC(=O)c1ccc(Oc2sc(C(N)=O)c3c2-c2sncc2CC3)cn1` [Example 139, 8-((6-((2-Methoxyethyl)carbamoyl)pyridin-3-yl)oxy)-4,5-dihydrothieno[3,4-g][1,2]benzothiazole-6-carboxamide succinic acid (1:1)] are 103%, 71% and 100%.

For the origin of these results see patent publication US9745325B2, “Fused heterocyclic compound” (Takeda Pharmaceutical Company Limited, priority 2014, dated 2017).
